Data as given in patent publication US10799508B2, “Methods for treating cancer using HSP90 inhibitors” (AI Therapeutics, Inc., priority 2017, dated 2020).

Tests used:
[1] = test system: HSP70 expression in HCC-38 cells; details: HCC-38 treated with MPC-3100, Western blot
Method: (§1) FIG. 5. HCC-38 cells treated with IFN-γ alone or co-treated with ruxolitinib (5000 nM) or MPC-3100 (10-5000 nM) were analyzed by Western blot to determine protein expression levels of HSP70 and pSTAT1. β-Actin was used as a loading control.

[2] = test system: PD-L1 expression in U87 cells
Method: (§2) FIG. 7. […] U87 cells were treated with MPC-3100 (500 and 1000 nM) for 24 h and analyzed by Western blotting with the indicated antibodies. β-Actin was used as a loading control.
(§3) Lysates were then prepared and queried for protein expression using western blot analysis.

pAkt in U87 cells = details: U87, MPC-3100 500 or 1000 nM, 24 h, Western blot
Method: as §2, §3

[3] = test system: PD-L1 cell surface expression in HCC-38 cells; assay: Flow cytometry of IFN-γ-induced PD-L1 cell surface expression, HCC-38; details: HCC-38, IFN-γ, MPC-3100 500 nM or 1000 nM, 48 h
Method: (§4) A) SK-MEL-28 and HCC-38 (both human lines) were treated with IFN-γ (50 ng/ml), MPC-3100 (500 nM or 1000 nM) or the combination for 48 h. B) EMT-6 and B16-F10 (both murine cell lines) were also treated with IFN-γ, MPC-3100 or the combination for 24 h. PD-L1 cell surface signals were analyzed by flow cytometry. Experiments were performed in duplicate and at least 2 independent times.
(§5) Two human cell lines were used (SK-MEL-28 and HCC-38 cells) and two murine cell lines were used (B16-F10, a melanoma cell line and EMT-6, a breast cancer cell line). All cells lines were treated with IFN-γ (50 ng/nl) and co-treated with MPC-3100 at the indicated concentrations for 48 h.

p-STAT1 in HCC-38 cells = assay: Western blot of IFN-γ-induced pSTAT1; assay type: cell-based, human
Method: as §1
Since IFN-γ stimulates the expression of its target genes, such as PD-L1, which is mediated via JAK/STAT-1 signaling, the human HCC-38 cell line was used to probe the mechanism for IFN-γ-induced PD-L1 expression.

[4] = test system: IFN-γ-induced PD-L1 expression in SK-MEL-28 cells; assay: 10-point dose response validation of IFN-γ-induced PD-L1 signal; assay type: cell-based, human; details: SK-MEL-28, IFN-γ 50 ng/ml, 48 h, FIG. 2A-E
Method: FIG. 1A-D. Validation dose response curves of HSP90 inhibitors tested in the original screen. A) CNF2024; B) PF04928473; C) tanespimycin; D) HSP-990. SK-MEL-28 cells treated with IFN-γ and with the indicated HSP90 inhibitor at different concentrations. Cells were assayed for cell viability (square, % viability on left axis) and PD-L1 expression (circle, Z-score right axis) at 48 h after treatment of IFN-γ and/or HSP90 inhibitors. Quadruplicate wells were used for determination of cell viability and PD-L1 expression. Average values were plotted. […] Lysates were probed with anti PD-L1 antibody.
FIG. 2A-E. Dose response curves of 5 additional HSP90 inhibitors. A) STA-9090, B) CUDC-305, C) MPC-3100, D) XL-888 and E) TAS-116. SK-MEL-28 cells treated with IFN-γ (50 ng/ml) and with the indicated HSP90 inhibitor at different concentrations. Cells were assayed for cell viability (square, % viability on left axis) and PD-L1 expression (circle, Z-score right axis) at 48 h after treatment of IFN-γ and/or HSP inhibitors. Quadruplicate wells were used for determination of cell viability and PD-L1 expression. Average values were plotted.
After assessment for viability, plates were then prepared for immunostaining. Briefly, 16% paraformaldehyde (Electron Microscopy Sciences) was added to each well to a final concentration of 4%, for 10 minutes at room temperature. Following this time, the fix was aspirated and cells were washed 3 times with PBS. Cells were blocked using blocking solution (1% bovine serum albumin in PBS) for 30 minutes. After this time, the blocking reagent was aspirated and immunostaining reagent added. The immunostaining reagent consisted of a biotin conjugated-PD-L1 antibody (eBioscience) diluted in blocking buffer. Plates were sealed and kept at 4 C overnight. The following day, plates were washed 3 times with PBS followed by addition of a streptavidin-luciferase fusion protein (Invivogen) diluted in blocking buffer, for 1 h at room temperature. After this step, the plates were washed 3 times with PBS. After the final wash, PBS was aspirated and 30 uL of QUANTI-Luc™ (Invivogen) was added per well. Plates were immediately read on a plate reader (Victor 3V plate reader, 0.1s) and luciferase activity measured.
The raw PD-L1 intensity (the luciferase readout) corresponding to drug screen plates was normalized to blank plates containing only IFN-γ-treated wells, and the resulting ratio was used for the calculation of Z-scores.
These 4 HSP90 inhibitors were validated using the same experimental protocol employed above (using the SK-MEL-28 cells +/−IFN-γ in 384 well plates), with the only exception to the original assay design was that each drug was now tested in a 10-point dose response assay where the concentration of drug tested was 9.8-5000 nM (2 fold serial dilution). Cells were seeded and treated in quadruplicate. Viability was assessed after 48 h of treatment of four HSP 90 inhibitors and prior to harvesting the cells for testing PD-L1 signal, as described above.

[5] = test system: PD-L1 cell surface expression in SK-MEL-28 cells; assay: Flow cytometry of IFN-γ-induced PD-L1 cell surface expression, SK-MEL-28; details: SK-MEL-28, IFN-γ, MPC-3100 500 nM or 1000 nM, 48 h
Method: as §4, §5

[6] = test system: IDO expression in HCC-38 cells; details: HCC-38, MPC-3100 1000 nM or 5000 nM, 48 h, Western blot
Method: Effect of HSP90 inhibitor MPC-3100 on IFN-γ-induced IDO protein levels. Human HCC-38 cells treated with IFN-γ alone or co-treated with ruxolitinib (5000 nM) or MPC-3100 (100, 1000 or 5000 nM) for 48 h. Lysates were analyzed by Western blot to determine protein expression levels of IDO.

[7] = test system: IFN-γ-induced PD-L1 expression in HCC-38 cells; assay: Western blot of IFN-γ-induced PD-L1 protein expression; assay type: cell-based, human; details: for IFN-γ-induced PD-L1 expression: IFN-γ 50 ng/ml, 48 h, Western blot
Method: FIG. 3. […] Human HCC-38 cells treated with IFN-γ alone or co-treated with ruxolitinib (5000 nM) or MPC-3100 (10-5000 nM) for 48 h were analyzed by Western blot analysis to determine protein expression levels of PD-L1. Ruxolitinib served as a positive control for inhibiting JAK2. β-Actin was used as a loading control.

[8] = test system: PD-L1 cell surface expression in B16-F10 cells; assay: Flow cytometry of IFN-γ-induced PD-L1 cell surface expression, B16-F10; details: B16-F10 (murine), IFN-γ plus MPC-3100, flow cytometry
Method: as §4, §5

[9] = test system: PD-L1 cell surface expression in EMT-6 cells; assay: Flow cytometry of IFN-γ-induced PD-L1 cell surface expression, EMT-6; details: EMT-6 (murine), IFN-γ plus MPC-3100, flow cytometry
Method: as §4, §5

[10] = read-out: maximum concentration (Cmax, geometric mean) in plasma; patients dosed at the recommended phase 2 dose; cited from earlier work

## C[C@H](O)C(=O)N1CCC(CCn2c(Sc3cc4c(cc3Br)OCO4)nc3c(N)ncnc32)CC1 [MPC-3100]
[1]
  HSP70 expression: increase
[2]; U87
  concentrations inhibiting PD-L1 expression, fold lower than the therapeutic dose: ~10 fold
[2]; U87, MPC-3100 500 or 1000 nM, 24 h, Western blot
  constitutive PD-L1 expression: attenuation
pAkt in U87 cells
  pAkt: reduction
[3]
  IFN-γ-induced cell surface expression of PD-L1: effectively inhibited
p-STAT1 in HCC-38 cells; HCC-38
  concentrations blocking p-STAT1, fold lower than the Cmax at the recommended Phase 2 dose: at least 10 fold
p-STAT1 in HCC-38 cells; HCC-38, MPC-3100 10-5000 nM, Western blot
  IFN-γ-induced p-STAT1: blocks
[4]
  concentration required to inhibit IFN-γ-induced PD-L1 expression compared with concentration required to affect cell proliferation: far lower
[5]
  IFN-γ-induced cell surface expression of PD-L1: effectively inhibited
[6]
  IFN-γ-induced IDO expression: inhibited
[7]; HCC-38, MPC-3100 100 nM
  IFN-γ-induced PD-L1 expression: reduced
[7]; HCC-38, MPC-3100 1000 nM
  IFN-γ-induced PD-L1 expression: completely abrogated
[7]; compared with plasma Cmax ~13 μM
  concentrations eliciting immuno-modulatory activity toward PD-L1, fold lower than Cmax at RP2D: at least 10 fold
[8]
  IFN-γ-induced cell surface expression of PD-L1: effectively inhibited
[9]
  IFN-γ-induced cell surface expression of PD-L1: effectively inhibited
[10]
  Cmax: ~13 µM
